Measured values as given in patent US20160200847A1, “CLICKABLE POLYMERS AND GELS FOR MICROARRAY AND OTHER APPLICATIONS” (priority 2014, published 2016).

Target: T1, Concanavalin A (ConA) (Canavalia ensiformis, UniProt P02866)
T1 construct: purchased Sigma Aldrich
Assay: Glycan microarray incubated with biotinylated ConA, Cy3-streptavidin fluorescence detection
Format: binding
Details: spotted at 50 μM; 100 ng/ml (0.943 nM) biotinylated ConA; Cy3-labelled streptavidin
Protocol: Four hundreds pL of each glycan was spotted at 10 μM or 50 μM concentration from an aqueous solution of […] (2.5 mM) and ascorbic acid (12.5 mM). A α-mannoside (10) and β-galactoside (11) were used as positive and negative controls. The immobilization reaction took place during an overnight incubation in a humid chamber at room temperature. The printed slides were sequentially washed with PBS buffer for 10 minutes with DI water and dried by a nitrogen stream. The arrayed slides were then incubated with biotinylated α-mannose-binding lectin Concanavalin A (ConA) in the lectin binding buffer (LBB, 50 mM HEPES, pH 7.4, 5 mM MnCl2, 5 mM CaCl2) in the presence of BSA (0.2 mg/ml). […] A final incubation of 1 h with 2 μg/ml Cyanine3 labelled Streptavidin in PBS (Phosphate Saline Buffer) in a humid chamber at room temperature under static condition enabled the fluorescence detection of the surface bound ConA by means of a scanner (ProScanArray scanner from Perkin Elmer, Boston, Mass., USA) used at 70% of laser power and 60% of photomultiplier (PMT) gain (FIG. 2b). The fluorescence intensities of 11 spot replicates were confirmed by three experiments that provided the same fluorescence intensities for each glycomimetic, with a standard deviation lower than 5%. […]
The graph (b) of FIG. 2 reports the fluorescence intensity observed for different glycan spots. […]

Structure (SMILES): OC[C@H]1O[C@@H](O)[C@H](O)[C@@H](O)[C@H]1O [Glycomimetic 11, β-galactose]
- interaction with ConA (spot fluorescence intensity, qualitative): lack of fluorescence
